Measurements reported in patent US11613558B2, “Peptides and pharmaceutical compositions for treating eye diseases” (Yuyu Pharma, Inc., priority 2018, dated 2023).
Numbered stars: 1 amine (or outer) side, 2 acyl side, 3 side chain; on linkers, the order of the positions; unused ones are H or OH. Square brackets hold non-standard residues; d marks the D form. Peptide text beside a SMILES is read from it. ξ: configuration not given here. Nva(4-oxo) = CC(=O)C[C@H](N)C(=O)O; X1 = O=C([C@H](CCCCO)N[*:1])[*:2]; Hyp = O=C(O)[C@@H]1C[C@@H](O)CN1; Thr(3ξ) = CC(O)[C@H](N)C(=O)O; hSer = N[C@@H](CCO)C(=O)O; Sar = CNCC(=O)O

Columns and labels:
[1] = Stability in aqueous solution under long-term storage conditions (related substances); format: physicochemical; settings: 25° C., 75% RH
Procedure: In order to confirm the stability of each test substance in an aqueous solution, […] of each sample was dissolved in 1 ml of water to a concentration of 1 mg/ml, which was then charged to a glass vial, plugged with a rubber cap, sealed with an aluminum cap, and stored under long-term storage conditions (25° C., 75% RH). The stability of the test substance was evaluated by measuring the amount of related substances at the time of one week, two weeks, four weeks, eight weeks, and twelve weeks under the long-term storage conditions.

[2] = system: rats with dry eye syndrome (extraorbital lacrimal gland excision, ELGE); test: Amount of tear secretion (Schirmer test, cobalt chloride paper) in ELGE rats with dry eye syndrome; format: in vivo, rat; settings: for Tear Volumes, Day 7 / Tear Volumes, Day 14: ELGE rats, 3 mg/ml, 5 μl/eye twice daily; for Tear Volumes, Day 7: day 7 of administration; for Tear Volumes, Day 14: day 14 of administration; for Change in amount of tear secretion as compared with the ELGE control group: 3% solution as printed, after administration for 14 days
Excerpt: (§1) In order to evaluate the eye protection effect on dry eye syndrome by YDE-001 to YDE-028 prepared in Example 1, a total of 320 Sprague-Dawley-type male rats (OrientBio, Seungnam, Korea) were adapted for 7 days. Thereafter, dry eye syndrome was induced in 264 test rats through extraorbital lacrimal gland excision (hereinafter, ELGE). 8 test rats without the eye abnormality were subjected to a sham operation as a control group.
(§2) The rat was systemically anesthetized by inhaling a mixed gas of 2% to 3% of isoflurane (Hana Pharm. Co., Hwasung, Korea), 70% of N2O, and 28.6% of O2 using a rodent anesthesia machine (Surgivet, Waukesha, Wis., USA) and a ventilator (Model 687, Harvard Apparatus, Cambridge, UK). Thereafter, the extraorbital lacrimal gland located in the subdermal area above the masseter muscle and […] was excised through a transverse incision in a size of 10 mm on the anterior part of the left ear tragus. The skin was sutured by a general method. […] After 6 days from the ELGE operation, it was checked through the Schirmer test by measuring the amount of tear secretion whether dry eye syndrome had been induced. Meanwhile, each rat of the control group with the sham operation was checked for the presence and location of the extraorbital lacrimal gland through a skin incision, and the skin was then sutured without the excision thereof (FIG. 4).
(§3) In addition, in order to evaluate the eye protection effect on dry eye syndrome by YDE-029 to YDE-043 prepared in Example 1, a total of 200 Sprague-Dawley-type male rats (OrientBio, Seungnam, Korea) were adapted for 7 days. Dry eye syndrome was induced in 165 test rats through the ELGE. 8 test rats without the eye abnormality were subjected to the sham operation as a control group. The ELGE was carried out as described above.
(§4) For YDE-001 to YDE-028, YY-102 and the 28 YDE-series were each dissolved in physiological saline at a concentration of 3 mg/ml and administered at a dose of 5 μl/eye at 9:30 am and 3:30 pm daily for 14 days after 7 days from the ELGE operation for a total of 28 times. The DS solution was dissolved in physiological saline at a concentration of 30 mg/ml and administered at a dose of […] twice a day for 14 days after 7 days from the ELGE operation for a total of 28 times. For the sham control and the ELGE control groups, the same stimulation as the administration was applied. In order to prevent excessive eye dryness, the same volume of physiological saline was applied in the same manner in place of the test substances.
as §4, with “Further, for YDE-029 to YDE-043,” for “For YDE-001 to YDE-028,”, “YDE-029 to YDE-043, YY-102 and” for “YDE-001 to YDE-028, YY-102 and”, “and the 15 YDE-series were” for “and the 28 YDE-series were”, “the test substances (FIG. 7).” for “the test substances.”
After 6 days from the ELGE surgery, the changes in the amount of tear secretion were measured at day 7 and day 14 after the administration of YDE-001 to YDE-043. The amount of tear secretion was measured by the […] travel distance of tears absorbed by cobalt chloride paper in a size of 1×15 mm (Toyo Roshi Kaisha, Japan).
The cobalt chloride paper was placed in the lateral canthus of a rat for 60 seconds to absorb tears (FIG. 9). The length of the area absorbed from the corner of the cobalt chloride paper was measured with an electronic digital caliper (Mytutoyo, Tokyo, Japan) (FIG. 8).

[3] = system: cornea of rats with dry eye syndrome (ELGE); test: Corneal permeability of fluorescent dye (corneal damage) in ELGE rats with dry eye syndrome; format: in vivo, rat; settings: 5 μl/eye twice daily, day 14
Excerpt: as §1, §2, §3, §4
as §4, with “Further, for YDE-029 to YDE-043,” for “For YDE-001 to YDE-028,”, “YDE-029 to YDE-043, YY-102 and” for “YDE-001 to YDE-028, YY-102 and”, “and the 15 YDE-series were” for “and the 28 YDE-series were”, “the test substances (FIG. 7).” for “the test substances.”
After YDE-001 to YDE-028 were each administered to the eyes […], the changes in the corneal permeability were checked.
In order to measure the corneal permeability, Zolethyl 50™ (Virbac Lab., Carros, France), an animal anesthetic, was intraperitoneally injected at a dose of 25 mg/kg. Thereafter, saline containing a 1% (v/v) fluorescent solution (fluorescein sodium salt, Tokyo Kasei Kogyo Co., Tokyo, Japan) was applied to the eyes at a dose of 5 μl/eye. The eyes thus treated were closed and fixed with a tape. After 1 hour, the remaining fluorescent solution was removed using a cotton swab (FIG. 12). […]

[4] = Table 4, study of YDE-001 to YDE-028
[5] = Table 6, study of YDE-001 to YDE-028, 3 mg/ml
[6] = Table 5, study of YDE-029 to YDE-043
[7] = Table 7, study of YDE-029 to YDE-043, 3 mg/ml

Structure (SMILES)	Amount of related substances (after 12 weeks) [1]	Tear Volumes, Day 7 [2, 4]	Tear Volumes, Day 14 [2, 4]	Permeability of fluorescent dye [3, 5]	Change in amount of tear secretion as compared with the ELGE control group ([2]; study of YDE-001 to YDE-028)	Tear Volumes, Day 7 [2, 6]	Tear Volumes, Day 14 [2, 6]	Change in amount of tear secretion as compared with the ELGE control group ([2]; study of YDE-029 to YDE-043)	Permeability of fluorescent dye [3, 7]
CC(C)C[C@H](NC(=O)[C@@H](NC(=O)[C@H](CC(=O)O)NC(=O)[C@H](CCC(N)=O)NC(=O)CNC(=O)[C@@H]1C[C@@H](O)CN1)C(C)O)C(=O)N[C@@H](C)C(=O)NCC(=O)N1CCC[C@H]1C(=O)N[C@@H](CCCCN)C(=O)O (some centres unmarked) [YDE-024] (H-[Hyp]GQD[Thr(3ξ)]LAGPK-OH)	20.59%	3.85 ± 1.30 mm^3	5.72 ± 1.36 mm^3	30.63 ± 10.41%	–	–	–	–	–
CC(=O)C[C@H](NC(=O)[C@H](CCC(N)=O)NC(=O)CNC(=O)[C@@H]1C[C@@H](O)CN1)C(=O)N(C)CC(=O)N[C@@H](CC(C)C)C(=O)N[C@@H](C)C(=O)NCC(=O)N1CCC[C@H]1C(=O)N[C@@H](CCCCN)C(=O)O [YDE-025] (H-[Hyp]GQ[Nva(4-oxo)][Sar]LAGPK-OH)	5.17%	3.21 ± 0.72 mm^3	4.72 ± 2.19 mm^3	47.10 ± 11.45%	did not show any significant changes	–	–	–	–
CC(C)C[C@H](NC(=O)CNC(=O)[C@H](CCO)NC(=O)[C@H](CCC(N)=O)NC(=O)CNC(=O)[C@@H]1C[C@@H](O)CN1)C(=O)N[C@@H](C)C(=O)NCC(=O)N1CCC[C@H]1C(=O)N[C@@H](CCCCN)C(=O)O [YDE-026] (H-[Hyp]GQ[hSer]GLAGPK-OH)	10.15%	4.32 ± 1.47 mm^3	6.01 ± 1.83 mm^3	22.63 ± 11.23%	–	–	–	–	–
COC(=O)C[C@H](NC(=O)[C@H](CCC(N)=O)NC(=O)CNC(=O)[C@@H]1C[C@@H](O)CN1)C(=O)NCC(=O)N[C@@H](CC(C)C)C(=O)N[C@@H](C)C(=O)NCC(=O)N1CCC[C@H]1C(=O)N[C@@H](CCCCN)C(=O)O [YDE-027] (H-[Hyp]GQD(OMe)GLAGPK-OH)	12.74%	2.82 ± 0.86 mm^3	3.95 ± 1.52 mm^3	50.24 ± 11.94%	did not show any significant changes	–	–	–	–
CNC(=O)C[C@H](NC(=O)[C@H](CCC(N)=O)NC(=O)CNC(=O)[C@@H]1C[C@@H](O)CN1)C(=O)NCC(=O)N[C@@H](CC(C)C)C(=O)N[C@@H](C)C(=O)NCC(=O)N1CCC[C@H]1C(=O)N[C@@H](CCCCN)C(=O)O [YDE-028] (H-[Hyp]GQD(NHMe)GLAGPK-OH)	1.15%	4.04 ± 0.99 mm^3	4.73 ± 1.18 mm^3	41.17 ± 10.25%	did not show any significant changes	–	–	–	–
CC(C)C[C@H](NC(=O)CNC(=O)[C@H](CC(C)C)NC(=O)[C@H](CCC(N)=O)NC(=O)CNC(=O)[C@@H]1C[C@@H](O)CN1)C(=O)N[C@@H](C)C(=O)NCC(=O)N1CCC[C@H]1C(=O)N[C@@H](Cc1ccc(O)cc1)C(=O)O [YDE-029] (H-[Hyp]GQLGLAGPY-OH)	2.77%	–	–	–	–	5.33 ± 1.43 mm^3	6.03 ± 1.71 mm^3	did not show any significant changes	63.45 ± 11.57%
CC(C)C[C@H](NC(=O)[C@@H]1CCCN1C(=O)CNC(=O)[C@H](C)NC(=O)[C@H](CC(C)C)NC(=O)CNC(=O)[C@H](CC(C)C)NC(=O)[C@H](CCC(N)=O)NC(=O)CNC(=O)[C@@H]1C[C@@H](O)CN1)C(=O)O [YDE-030] (H-[Hyp]GQLGLAGPL-OH)	2.74%	–	–	–	–	5.69 ± 1.79 mm^3	6.65 ± 2.17 mm^3	did not show any significant changes	30.60 ± 13.61%
CC(C)C[C@H](NC(=O)CNC(=O)[C@H](CC(C)C)NC(=O)[C@H](CCC(N)=O)NC(=O)CNC(=O)[C@@H]1C[C@@H](O)CN1)C(=O)N[C@@H](C)C(=O)NCC(=O)N1CCC[C@H]1C(=O)N[C@@H](CCC(=O)O)C(=O)O [YDE-031] (H-[Hyp]GQLGLAGPE-OH)	34.82%	–	–	–	–	5.63 ± 1.97 mm^3	5.91 ± 0.85 mm^3	–	33.35 ± 11.01%
CC(C)C[C@H](NC(=O)CNC(=O)[C@H](CC(C)C)NC(=O)[C@H](CCC(N)=O)NC(=O)CNC(=O)[C@@H]1C[C@@H](O)CN1)C(=O)N[C@@H](C)C(=O)NCC(=O)N1CCC[C@H]1C(=O)N[C@@H](CCC(N)=O)C(=O)O [YDE-032] (H-[Hyp]GQLGLAGPQ-OH)	6.16%	–	–	–	–	5.58 ± 0.80 mm^3	5.03 ± 0.93 mm^3	did not show any significant changes	58.90 ± 19.81%
CC(C)C[C@H](NC(=O)CNC(=O)[C@H](CC(C)C)NC(=O)[C@H](CCC(N)=O)NC(=O)CNC(=O)[C@@H]1C[C@@H](O)CN1)C(=O)N[C@@H](C)C(=O)NCC(=O)N1CCC[C@H]1C(=O)N[C@@H](CCCCO)C(=O)O [YDE-033] (H-[Hyp]GQLGLAGP[X1]-OH)	5.6%	–	–	–	–	4.99 ± 1.20 mm^3	4.54 ± 1.16 mm^3	did not show any significant changes	60.55 ± 21.22%
